Data taken from article PMC10504751, “Chalcone/1,3,4-Oxadiazole/Benzimidazole hybrids as novel anti-proliferative agents inducing apoptosis and inhibiting EGFR & BRAFV^600E” (BMC Chemistry, 2023).
Values joined by “and” are separate entries in the source; they are usually repeats but may differ in a detail not shown here. Equal values may be shown once.

Key:
[1] = MTT cell viability assay in normal cells; assay type: cell-based; conditions: human, MCF-10A normal mammary epithelial cells
Description: To check the safety of prepared compounds and evaluate their selectivity towards tumor cells over normal ones, the toxicity of compounds 7a-x were evaluated by 3-(4,5-Dimethylthiazole-2-yl)-2,5-diphenyltetrazol (MTT) assay on the normal human mammary epithelial cell line (MCF-10 A). The human mammary epithelial cell lines were incubated for four days with a concentration of 50 µM of compounds 7a-x.
MTT assay was done to determine the effect of the synthesized compounds on the viability of mammary epithelial cells (MCF-10 A). Compounds 7a-x were incubated with MCF-10 A cells for 4 days at 50 µM concentration, and the viability of cells was determined. See Appendix A.
MTT assay was carried out to study the effect of compounds on mammary epithelial cells (MCF-10A).^7, ^8 The medium in which cells were propagated contained Dulbecco's modified Eagle's medium (DMEM)/ Ham's F-12 medium (1:1) supplemented with epidermal growth factor (20 ng/mL), hydrocortisone (500 ng/mL), insulin (10 μg/mL), 2 mM glutamine and 10% foetal calf serum. After every 2-3 days, the cells were passaged using trypsin ethylenediamine tetra acetic acid (EDTA). The cells were seeded at a density of 10^4 cells mL^-1 in flat-bottomed culture plates containing 96 wells each. After 24 h, medium was removed from the plates and the compounds in (in 0.1% DMSO) were added (in 200 μL medium to yield a final concentration of 0.1% v/v) to the wells of plates. A single compound was designated with four wells followed by incubation of plates for 96h at 37°C. After incubation, medium was removed completely from the plates followed by addition of MTT (0.4 mg/mL in medium) to each well and subsequent incubation of plates for 3h. MTT (along with the medium) was removed and DMSO (150μL) was added to each well of the culture plates, followed by vortexing and subsequent measurement of absorbance (at 540 nm) using microplate reader.

MCF-7 = test: Propidium iodide anti-proliferative assay; assay type: cell-based; conditions: Homo sapiens, MCF7; 48 h incubation; read-out: IC50 ± SEM MCF-7
Description: (§1) The propidium iodide (PI) tests^31, 32 were further used for assessment of the IC50 of all synthesized compounds and compared to Doxorubicin as a positive control against four cancer cell lines; pancreatic cancer cell line (Panc-1), epithelial line cancer cell (A-549), breast cancer cell line (MCF-7), and colon cancer cell line (HT-29).
(§2) Using the propidium iodide fluorescence assay with doxorubicin as the reference drug, IC50 of the 24 compounds 7a-x, was carried out according to a previously reported procedure^31, 32 against a panel of four human cancer cell lines; epithelial cancer cell line (A-549), breast cancer cell line (MCF-7), colon cancer cell line (HT-29) and pancreas cancer cell line (Panc-1). Compounds 7a-x were incubated with cancer cells for 2 days at different concentrations. See Appendix A.
(§3) To explore the antiproliferative potential of compounds propidium iodide fluorescence assay was performed using different cell lines (melanoma cancer cell line LOX-IMVI, pancreatic cancer cell line (Panc-1), epithelial line cancer cell (A-549), breast cancer cell line (MCF-7), and colon cancer cell line (HT-29). To calculate the total nuclear DNA, a fluorescent dye (propidium iodide, PI) is used which can attach to the DNA,^9,^10 thus offering a quick and precise technique. PI cannot pass through the cell membrane and its signal intensity can be considered as directly proportional to the quantity of cellular DNA. Cells whose cell membranes are damaged or have changed permeability are counted as dead ones. The assay was performed by seeding the cells of different cancer cell lines at a density of 3000-7500 cells/well (in 200µl medium) in culture plates followed by incubation for 24h at 37 °C in humidified 5% CO2/95% air atmospheric conditions. The medium was removed; the compounds were added to the plates at 10 µM concentrations (in 0.1% DMSO) in triplicates, followed by incubation for 48 h. DMSO (0.1%) was used as control. After incubation, medium was removed followed by the addition of PI (25 µl, 50µg/mL in water/medium) to each well of the plates. At -80 °C, the plates were allowed to freeze for 24 h, followed by thawing at 25 °C. A fluorometer (Polar-Star BMG Tech) was used to record the readings at excitation and emission wavelengths of 530 and 620 nm for each well. The percentage cytotoxicity of compounds was calculated using the following formula:
(§4) Where ATC= Absorbance of treated cells and AC= Absorbance of control. […]

HT-29 = test: Propidium iodide anti-proliferative assay; assay type: cell-based; conditions: Homo sapiens, 48 h incubation, read-out: IC50 ± SEM HT-29
Description: as §1, §2, §3, §4

Panc-1 = test: Propidium iodide anti-proliferative assay; assay type: cell-based; conditions: Homo sapiens, 48 h incubation, read-out: IC50 ± SEM Panc-1
Description: as §1, §2, §3, §4

A-549 = test: Propidium iodide anti-proliferative assay; assay type: cell-based; conditions: Homo sapiens, A549; 48 h incubation; read-out: IC50 ± SEM A-549
Description: as §1, §2, §3, §4

[2] = system: Panc-1, A-549, MCF-7 and HT-29; test: Propidium iodide anti-proliferative assay, four cell lines together; assay type: cell-based; conditions: Homo sapiens; range over Panc-1, A-549, MCF-7, HT-29; read-out: IC50 range on the four tested cell lines
Description: as §1, §2
as §3, with “The medium was removed; the compounds were added to the plates at 10 µM concentrations (in 0.1% DMSO) in triplicates, followed by incubation for 48 h. DMSO (0.1%) was used as control. After incubation, medium was removed followed by the addition of PI (25 µl, 50µg/mL in water/medium) to each well of the plates. At -80 °C, the plates were allowed to freeze for 24 h, followed by thawing at 25 °C.” left out
as §4

[3] = system: Caspase-3 in MCF-7 breast cancer cells; test: Caspase-3 assay
Description: All reagents were allowed to reach room temperature before use. All liquid reagents were gently mixed before use. The number of 8-well strips needed for the assay was determined. These were inserted into the frame(s) for current use. A total of 100 µL of the Standard Diluent Buffer was added to the zero standard wells. Well(s) reserved for chromogen blank were left empty. A total of 100 µL of standards and controls or diluted samples was added to the appropriate microtiter wells. The sample dilution chosen was optimized for each experimental system. The side of the plate was gently tapped on to
mix. Wells were covered with a plate cover and incubated for 2 h at room temperature. The solution was thoroughly aspirated or decanted from the wells and the liquid was discarded; wells were washed four times. […] The side of the plate was gently tapped on to mix. The plate was covered with a plate cover and incubated for 1h at room temperature. The solution was thoroughly aspirated or decanted from wells and the liquid was discarded; wells were washed four times. A total of 100 µL Anti-Rabbit IgG HRP Working Solution was added to each well except the chromogen blank(s). The working dilution was prepared as described in Preparing IgG HRP. Wells were covered with the plate cover and incubated for 30 min at room temperature. The solution was thoroughly aspirated or decanted from the wells and the liquid was discarded. Wells were washed four times. A total of 100 µL of Stabilized Chromogen was added to each well. The liquid in the wells began to turn blue. It was incubated for 30 min at room temperature and in the dark. The incubation time for chromogen substrate was determined by the microtiter plate reader used. Many plate readers have the capacity to record a maximum optical density (O.D.) of 2.0. The O.D. values were monitored, and the substrate reaction was stopped before the O.D. of the positive wells exceeds the limits of the instrument. The O.D. values at 450 nm could only be read after the Stop Solution had been added to each well. A total of 100 µL of Stop Solution was added to each well. The side of the plate was gently tapped to mix. The solution in the wells changed from blue to yellow. The absorbance of each well was read at 450 nm, having blanked the plate reader against a chromogen blank composed of 100 µL each of Stabilized Chromogen and Stop Solution. The plate was read within 2 h after adding the Stop Solution. A curve fitting software was used to generate the standard curve.
The concentrations for unknown samples and controls from the standard curve were read. Value(s) obtained for sample(s) by the appropriate dilution factor were multiplied to correct for the dilution in step 3.

BAX in MCF-7 = test: BAX activation assay
Description: All reagents were brought to room temperature for at least 30 min before opening (except the human BAX-α Standard). Human BAX-α Standard solution was not be left at room temperature for more than 10 min. Duplicates of all standards, controls, and samples were run. The Assay Layout Sheet was used to determine the number of wells to be used, and any remaining wells were put with the desiccant back into the pouch, and the ziplock was sealed. Unused wells were stored at 4 ◦C. A total of 100 µL of Assay Buffer was pipetted into the S0 (0 pg/mL standard) wells. A total of 100 µL of Standards #1 through #6 was pipetted into the appropriate wells. A total of 100 µL of the samples was pipetted into the appropriate wells. The plate was gently tapped to mix the contents. The plate was sealed and incubated at room temperature on a plate shaker for 1 h at ~500 rpm. The contents of the wells were emptied and washed by adding 400 µL of wash solution to every well. The wash was repeated four more times for a total of five washes. After the final wash, the wells were emptied or aspirated and firmly the plate on a lint-free paper towel was tapped to remove any remaining wash buffer. A total of 100 µL of yellow antibody was pipetted into each well, except the Blank. The plate was sealed and incubated at room temperature on a plate shaker for 1 h at ~500 rpm. The contents of the wells were emptied and washed by adding 400 µL of wash solution to every well. The wash was repeated four more times for a total of five washes. After the final wash, the wells were emptied or aspirated, and the plate was firmly tapped on a lint-free paper towel to remove any remaining wash buffer. A total of 100 µL of blue Conjugate was added to each well, except the Blank. The plate was sealed and incubated at room temperature on a plate shaker for 30 min at ~500 rpm. The contents of the wells were emptied and washed by adding 400 µL of wash solution to every well. The wash was repeated four more times for a total of five washes. After the final wash, the wells were emptied or aspirated and the plate was firmly tapped on a lint-free paper towel to remove any remaining wash buffer. A total of 100 µL of Substrate Solution was pipetted into each well. It was incubated for 30 min at room temperature on a plate shaker at ~500 rpm. A total of 100 µL Stop Solution was pipetted into to each well. The plate reader was blanked against the Blank wells, and the optical density was read at 450 nm. The average net optical density (OD) bound for each standard and sample was calculated by subtracting the average Blank OD from the average OD for each standard and sample. Using linear graph paper, the Average Net OD for each standard versus BAX concentration in each standard were plotted. A straight line was approximated through the points. The concentration of BAX in the unknowns could be determined by interpolation.

[4] = system: Cytochrome C in MCF-7 human breast cancer cell line; test: Cytochrome C assay; assay type: cell-based
Bcl-2 in MCF-7 = test: Bcl-2 inhibition assay
Description: All reagents were thoroughly mixed without foaming before use. The microwells were washed twice with approximately 300 µL Wash Buffer per well with the thorough aspiration of microwell contents between washes. Care was taken not to scratch the surface of the microwells. After the last wash, the wells were emptied and microwell strips were tapped on an absorbent pad or paper towel to remove excess Wash Buffer. The microwell strips were used immediately after washing or placed upside down on a wet absorbent paper for not longer than 15 min. Wells were not allowed to dry. A total of 100 µL of Sample Diluent was added in duplicate to all standard wells and the blank wells. Standard (1:2 dilution) in duplicate was prepared ranging from 32 to 0.5 ng/mL. A total of 100 µL of Sample Diluent, in duplicate, was added to the blank wells. A total of 80 µL of Sample Diluent, in duplicate, was added to the sample wells. A total of 20 µL of each sample, in duplicate, was added to the designated wells. A total of 50 µL of diluted biotin was added, conjugated to all wells, including the blank wells. It was covered with a plate cover and incubated at room temperature on a microplate shaker at 100 rpm for 2 h. The plate cover was removed and the wells were emptied. Microwell strips were washed times as described in Step 2. A total of 100 µL of diluted Streptavidin-HRP was added to all wells, including the blank wells. It was covered with a plate cover and incubated at room temperature on a microplate shaker at 100 rpm for 1 h. The plate cover was removed and the wells were emptied. Microwell strips were washed three times, as described in Step 2. A total of 100 µL of mixed TMB Substrate Solution was pipetted into all wells, including the blanks. The microwell strips were incubated at room temperature (18 ◦C to 25 ◦C) for about 15 min, on a rotator set at 100 rpm. Direct exposure to intense light was avoided. The point at which the substrate reaction is stopped was determined by the ELISA reader. Many ELISA readers record absorbance only up to 2.0 O.D. Therefore, the color development within individual microwells was watched by the person running the assay, and the substrate reaction was stopped before positive wells were no longer properly detectable. The enzyme reaction was stopped by quickly pipetting 100 µL of Stop Solution into each well, including the blank wells. It was important that the Stop Solution was spread quickly and uniformly throughout the microwells to inactivate the enzyme completely. Results were read immediately after the Stop Solution was added or within one hour if the microwell strips were stored at 2–8 ◦C in the dark. The absorbance of each microwell was read on a spectrophotometer using 450 nm as the primary wavelength.

[5] = system: Caspase-9 in MCF-7 breast cancer cells; test: Caspase-9 assay; assay type: cell-based, human
[6] = system: Caspase-8 in MCF-7 breast cancer cells; test: Caspase-8 assay; assay type: cell-based, human

Q: Which results are given for `COc1ccc(/C=C/C(=O)c2ccc(NC(=O)CSc3nnc(-c4ccc5[nH]c(-c6ccc(Cl)cc6)nc5c4)o3)cc2)cc1OC` [Compound 7i, 2-{5-[2-(4-Chlorophenyl)-1 H-benzo[d]imidazol-5-yl]-1,3,4-oxadiazol-2-ylthio}-N-{4-[(E)-3-(3,4-dimethoxyphenyl)acryloyl]phenyl}acetamide]?
A: viability at 96 h, 50 µM [1]: 84%; IC50 (MCF-7): 9.2 ± 1 µM; IC50 (HT-29): 10.2 ± 1.3 µM; IC50 (Panc-1): 10.2 ± 1.2 µM; IC50 (A-549): 9.7 ± 1.1 µM; melting point: 208 to 210 °C

Q: For `COc1cc(/C=C/C(=O)c2ccc(NC(=O)CSc3nnc(-c4ccc5[nH]c(-c6ccc(Cl)cc6)nc5c4)o3)cc2)cc(OC)c1OC` [Compound 7j, 2-{5-[2-(4-Chlorophenyl)-1 H-benzo[d]imidazol-5-yl]-1,3,4-oxadiazol-2-ylthio}-N-{4-[(E)-3-(3,4,5-trimethoxyphenyl)acryloyl]phenyl}acetamide], which viability at 96 h, 50 µM [1] is on record?
A: 89%

Q: What about the IC50 (MCF-7) of the same compound?
A: 9.4 ± 1.2 µM

Q: What about the IC50 (HT-29) of the same compound?
A: 10.7 ± 1.1 µM

Q: And the IC50 (Panc-1)?
A: 10.3 ± 1.2 µM

Q: And the IC50 (A-549)?
A: 9.95 ± 1.1 µM

Q: What about the melting point of the same compound?
A: 223 to 225 °C

Q: With `COc1ccc(/C=C/C(=O)c2ccc(NC(=O)CSc3nnc(-c4ccc5[nH]c(-c6ccc(OC)c(OC)c6)nc5c4)o3)cc2)cc1OC` [Compound 7s, 2-{5-[2-(3,4-Dimethoxyphenyl)-1 H-benzo[d]imidazol-5-yl]-1,3,4-oxadiazol-2-ylthio}-N-{4-[(E)-3-(3,4-dimethoxyphenyl)acryloyl]phenyl}acetamide] as the compound, how does the viability at 96 h, 50 µM [1] read?
A: 87%

Q: What about the IC50 (MCF-7) of the same compound?
A: 3.15 ± 0.5 µM

Q: And the IC50 (HT-29)?
A: 4.55 ± 0.6 µM

Q: And the IC50 (Panc-1)?
A: 4.3 ± 0.6 µM

Q: And the IC50 (A-549)?
A: 3.8 ± 0.6 µM

Q: And the melting point?
A: 190 to 193 °C

Q: Which viability at 96 h, 50 µM [1] does the source give for `COc1ccc(-c2nc3cc(-c4nnc(SCC(=O)Nc5ccc(C(=O)/C=C/c6cc(OC)c(OC)c(OC)c6)cc5)o4)ccc3[nH]2)cc1OC` [Compound 7t, 2-{5-[2-(3,4-Dimethoxyphenyl)-1 H-benzo[d]imidazol-5-yl]-1,3,4-oxadiazol-2-ylthio}-N-{4-[(E)-3-(3,4,5-trimethoxyphenyl)acryloyl]phenyl}acetamide] here?
A: 88%

Q: What about the IC50 (MCF-7) of the same compound?
A: 10.1 ± 1 µM

Q: And the IC50 (HT-29)?
A: 10.8 ± 1.2 µM

Q: What about the IC50 (Panc-1) of the same compound?
A: 10.9 ± 1.2 µM

Q: What about the IC50 (A-549) of the same compound?
A: 10.6 ± 1.1 µM

Q: What about the melting point of the same compound?
A: 190 to 193 °C

Q: Which results are given for `COc1ccc(/C=C/C(=O)c2ccc(NC(=O)CSc3nnc(-c4ccc5[nH]c(-c6cc(OC)c(OC)c(OC)c6)nc5c4)o3)cc2)cc1` [Compound 7w, 2-{5-[2-(3,4,5-Trimethoxyphenyl)-1 H-benzo[d]imidazol-5-yl]-1,3,4-oxadiazol-2-ylthio}-N-{4-[(E)-3-(4-methoxyphenyl)acryloyl]phenyl}acetamide]?
A: viability at 96 h, 50 µM [1]: 91%; IC50 (MCF-7): 10.2 ± 1.2 µM; IC50 (HT-29): 11.2 ± 1.3 µM; IC50 (Panc-1): 11.2 ± 1.2 µM; IC50 (A-549): 10.9 ± 1.1 µM; melting point: 200 to 204 °C

Q: Which viability at 96 h, 50 µM [1] does the source give for `COc1ccc(/C=C/C(=O)c2ccc(NC(=O)CSc3nnc(-c4ccc5[nH]c(-c6cc(OC)c(OC)c(OC)c6)nc5c4)o3)cc2)cc1OC` [Compound 7x, 2-{5-[2-(3,4,5-Trimethoxyphenyl)-1 H-benzo[d]imidazol-5-yl]-1,3,4-oxadiazol-2-ylthio}-N-{4-[(E)-3-(3,4-dimethoxyphenyl)acryloyl]phenyl}acetamide] here?
A: 85%

Q: And the IC50 (MCF-7)?
A: 10.8 ± 1.1 µM

Q: And the IC50 (HT-29)?
A: 12.5 ± 1.5 µM

Q: What about the IC50 (Panc-1) of the same compound?
A: 11.8 ± 1.2 µM

Q: What about the IC50 (A-549) of the same compound?
A: 11.5 ± 1.2 µM

Q: And the melting point?
A: 212 to 215 °C

Q: For `COc1cccc2c1C(=O)c1c(O)c3c(c(O)c1C2=O)C[C@@](O)(C(=O)CO)C[C@@H]3O[C@H]1C[C@H](N)[C@H](O)[C@H](C)O1` [Doxorubicin, reference compound], which IC50 [2] is on record?
A: 0.9 to 1.41 µM

Q: What about the “Caspase-3 Fold change” value ([3]; MCF-7, vs untreated control) of the same compound?
A: 7.65 fold

Q: What about the “Caspase-3 Conc” value ([3]; MCF-7 breast cancer cells) of the same compound?
A: 503.200 ± 4.20 pg/mL

Q: And the “BAX Conc” value (BAX in MCF-7; MCF-7)?
A: 276 pg/mL and 276.500 pg/mL

Q: What about the “BAX Fold change” value (BAX in MCF-7; MCF-7, vs untreated control) of the same compound?
A: 32.5 fold

Q: What about the “Cytochrome C Fold change” value ([4]; MCF-7, vs untreated control) of the same compound?
A: 13.10 fold

Q: What about the “Cytochrome C Conc” value ([4]; MCF-7 breast cancer cells) of the same compound?
A: 0.604 ng/mL

Q: And the IC50 (MCF-7)?
A: 0.9 ± 0.1 µM

Q: What about the IC50 (HT-29) of the same compound?
A: 1.01 ± 0.1 µM

Q: And the IC50 (Panc-1)?
A: 1.41 ± 0.1 µM

Q: What about the IC50 (A-549) of the same compound?
A: 1.21 ± 0.1 µM

Q: What about the “Bcl-2 Conc” value (Bcl-2 in MCF-7; MCF-7) of the same compound?
A: 0.98 ng/mL and 0.985 ng/mL

Q: What about the “Bcl-2 Fold reduction” value (Bcl-2 in MCF-7; MCF-7, vs untreated control) of the same compound?
A: 5.1 fold

Q: And the “Caspase-9 Fold change” value ([5]; MCF-7, vs untreated control)?
A: 17.40 fold

Q: What about the “Caspase-9 Conc” value ([5]; MCF-7 breast cancer cells) of the same compound?
A: 16.200 ng/mL

Q: What about the “Caspase-8 Fold change” value ([6]; MCF-7, vs untreated control) of the same compound?
A: 10.00 fold

Q: And the “Caspase-8 Conc” value ([6]; MCF-7 breast cancer cells)?
A: 1.750 ng/mL
